In patent US20250195475A1, “CDK2 INHIBITOR AND PREPARATION METHOD AND USE THEREOF” (INVENTISBIO CO., LTD., priority 2022, published 2025):

These compounds were tested against CDK2/CyclinE1 (Homo sapiens (Human), UniProt P24941) (assay: CDK2 kinase assay (TR-FRET)). Settings: CDK2/CyclinE1 0.5 nM, ATP 50 μM.
Type: biochemical
Experimental: The purpose of these assays is to evaluate the inhibition of small molecule inhibitors by using TR-FRET assay.
Compound Preparation. Dissslove the compounds into DMSO solution to make 10 mM DMSO stock. Serially dilute the stock solution from highest concentration down to lowest in DMSO to make the compound stock plate (100× stock plates). To make 5× compound intermediate plate, add 38 μL of assay buffer (50 mM HEPES, pH 7.5, 0.05 mg/mL BSA, 10 mM MgCl2, 1 mM EGTA, 0.01% Tween-20, 2 mM DTT) into each well of the V-bottom plate; then transfer 2 μL of the stock compound solution of each concentration from the compound stock plate (100× stock), and mix well.
Enzyme reaction. Transfer 2 μL compound from 5× intermediate plate into assay plate, then add 4 μL/well 2.5× Enzyme mix to assay plate, incubation for 10 min at room temperature. For positive control wells, add 4 μL/well assay buffer instead of Enzyme mix. Then add 4 μL/well 2.5× Substrate mix to assay plate, and incubation at 25° C. for 30 min at room temperature. After reaction, 10 μL 2× Detection mix (final 15 mM EDTA, 1× LANCE Detection Buffer, 0.5 nM Detection antibody) was added and incubated for 1 h prior to detection with excitation and emission at 320 and 665 nm (Tecan Spark® TR-FRET mode Tecan).
Inhibition rate (IR) of the tested compounds was determined by the following formula: IR (%)=(average High control−compound well)/(average High control−average Low control)*100%. Fit the compound IC50 from non-linear regression equation: Y=Bottom+(Top−Bottom)/(1+10^((Log IC50−X)*HillSlope)). X: Log of cpd concentration; Y: Inhibition rate (TR); Top and Bottom: Plateaus in same units as Y, log IC50: same log units as X; HillSlope: Slope factor or Hill slope.

Row | SMILES | IC50
1 | C#C[C@H]1C[C@@H]1C(=O)Nc1cc([C@@H]2C[C@H](OC(=O)NC3(C)CC3)CO2)[nH]n1 [Compound 157] | 2.9 nM
2 | COCC1CC(C(=O)Nc2cc([C@H]3CC[C@@H](OC(=O)NC(C)C)C3)[nH]n2)C1 (single isomer, unassigned) [Compound 149] | 13.4 nM
3 | CC(C)NC(=O)O[C@@H]1CC[C@H](c2cc(NC(=O)[C@H]3C[C@@H]3COC(F)F)n[nH]2)C1 [Compound 105] | 1.1 nM
4 | COCc1cc(C(=O)Nc2cc([C@H]3C[C@@H]4[C@H](C3)[C@H]4C(=O)NC(C)C)[nH]n2)n(C)n1 [Compound 69] | 18.8 nM
5 | Cc1c(C2CC2C(=O)Nc2cc([C@H]3CC[C@@H](OC(=O)NC(C)C)C3)[nH]n2)cnn1C (stereo partly drawn) [Compound 162] | 109 nM
6 | Cn1nccc1C(=O)Nc1cc([C@@H]2C[C@H](OC(=O)NC3(CF)CCC3)CO2)[nH]n1 [Compound 216] | 1.8 nM
7 | C#C[C@H]1C[C@@H]1C(=O)Nc1cc([C@H]2CC[C@@H](OC(=O)NC3(C)CC3)C2)[nH]n1 [Compound 141] | 0.5 nM
8 | CC[C@H](C)NC(=O)O[C@@H]1CC[C@H](c2cc(NC(=O)C3CC3C#N)n[nH]2)C1 (single isomer, unassigned) [Compound 199] | 2.3 nM
9 | Cn1nccc1C(=O)Nc1cc([C@H]2C[C@@H](OC(=O)NC34CC(C3)C4)CO2)[nH]n1 [Compound 96] | 0.8 nM
10 | CC(C)NC(=O)O[C@@H]1CC[C@H](c2cc(NC(=O)C34CC(C(F)F)(C3)C4)n[nH]2)C1 [Compound 106] | 1.8 nM
11 | CC(C)NC(=O)O[C@@H]1CO[C@H](c2cc(NC(=O)[C@@H]3CCN(S(=O)(=O)C4CC4)C3)n[nH]2)C1 [Compound 132] | 7.2 nM
12 | C#C[C@H]1C[C@@H]1C(=O)Nc1cc([C@H]2C[C@@H](OC(=O)NC(C)C)CO2)[nH]n1 [Compound 164] | 1.5 nM
13 | COC1CN(CC(=O)Nc2cc([C@H]3CC[C@@H](OC(=O)NC(C)C)C3)[nH]n2)C1 [Compound 72] | 210 nM
14 | CC(C)NC(=O)OC1COC(c2cc(NC(=O)Cc3ccccc3C(F)(F)F)n[nH]2)C1 (stereo not drawn) [Compound 64] | 16.6 nM
15 | COC[C@@H]1C[C@H]1C(=O)Nc1cc([C@H]2CC[C@@H](OC(=O)NC(C)C)C2)[nH]n1 [Compound 28] | 110 nM
16 | CC(C)NC(=O)O[C@@H]1CO[C@H](c2cc(NC(=O)c3cc(C4CC4)nn3C)n[nH]2)C1 [Compound 77] | 56 nM
17 | CC1(NC(=O)O[C@H]2CC[C@@H](c3cc(NC(=O)C4CC4C#N)n[nH]3)C2)CC1 (single isomer, unassigned) [Compound 195] | 1.5 nM
18 | COC[C@H]1C[C@@H]1C(=O)Nc1cc([C@H]2CC[C@@H](OC(=O)NC(C)C(F)F)C2)[nH]n1 (single isomer, unassigned) [Compound 108] | 5 nM
19 | CC(C)NC(=O)O[C@@H]1CC[C@H](c2cc(NC(=O)C3CC34CCOC4)n[nH]2)C1 (stereo partly drawn) [Compound 174] | 61.1 nM
20 | CO[C@H]1CC[C@H](C(=O)Nc2cc([C@H]3CC[C@@H](OC(=O)NC(C)C)C3)[nH]n2)CC1 [Compound 2] | 17.8 nM
21 | C#C[C@H]1C[C@@H]1C(=O)Nc1cc([C@@H]2C[C@H](OC(=O)NC(C)(C)CC)CO2)[nH]n1 [Compound 169] | 1.9 nM
22 | Cc1occc1C(=O)Nc1cc([C@@H]2C[C@H](OC(=O)NC(C)C)CO2)[nH]n1 [Compound 133] | 50.1 nM
23 | Cc1c(C2CC2C(=O)Nc2cc([C@H]3CC[C@@H](OC(=O)NC(C)C)C3)[nH]n2)cnn1C (single isomer, unassigned) [Compound 163] | 0.7 nM
24 | COCc1cc(C(=O)Nc2cc([C@H]3CC[C@@H](OC(=O)N[C@H]4C[C@]5(CCOC5)C4)C3)[nH]n2)n(C)n1 [Compound 202] | 3.9 nM

Row | SMILES | IC50
25 | CC(C)NC(=O)O[C@@H]1CC[C@H](c2cc(NC(=O)CN3CC(F)C3)n[nH]2)C1 [Compound 82] | 114 nM
26 | CC(C)NC(=O)OC1COC(c2cc(NC(=O)c3ccnn3C)n[nH]2)C1 (stereo not drawn) [Compound 27] | 1.2 nM
27 | CC(C)NC(=O)O[C@@H]1CC[C@H](c2cc(NC(=O)[C@H]3CCN(C(=O)C(C)C)C3)n[nH]2)C1 [Compound 31] | 8.1 nM
28 | C#C[C@H]1C[C@@H]1C(=O)Nc1cc([C@@H]2CC[C@H](OC(=O)NC3(C)CC3)C2)[nH]n1 [Compound 223] | 0.5 nM
29 | CC(C)NC(=O)O[C@H]1CO[C@@H](c2cc(NC(=O)c3cc(C(F)F)nn3C)n[nH]2)C1 [Compound 111] | 4.1 nM
30 | CC(C)NC(=O)O[C@@H]1CC[C@H](c2cc(NC(=O)[C@H]3C[C@@H]3COC(C)C)n[nH]2)C1 [Compound 45] | 2.7 nM
31 | C#C[C@H]1C[C@@H]1C(=O)Nc1cc([C@@H]2C[C@H](OC(=O)NC3(C)CCC3)CO2)[nH]n1 [Compound 171] | 1.3 nM
32 | CC(C)(C)NC(=O)O[C@@H]1CC[C@H](c2cc(NC(=O)C3CC3C#N)n[nH]2)C1 (single isomer, unassigned) [Compound 187] | 1.4 nM
33 | COCc1cc(C(=O)NC2=NCC([C@H]3CC[C@H](N4CCN(C(C)C)C4=O)C3)=C2)n(C)n1 [Compound 20] | 1000 nM
34 | CC(C)NC(=O)O[C@@H]1CC[C@H](c2cc(NC(=O)C3CC34CCOC4)n[nH]2)C1 (stereo partly drawn) [Compound 176] | 33 nM
35 | COC(C)[C@H]1C[C@@H]1C(=O)Nc1cc([C@H]2CC[C@@H](OC(=O)NC3(C)CC3)C2)[nH]n1 (single isomer, unassigned) [Compound 220] | 1.5 nM
36 | CC(C)NC(=O)O[C@@H]1CC[C@H](c2cc(Nc3nccc(CCO)n3)n[nH]2)C1 [Compound 12] | 10.1 nM
37 | Cc1cc(CC(=O)Nc2cc([C@H]3CC[C@@H](OC(=O)NC4COC5(CCC5)C4)C3)[nH]n2)on1 (single isomer, unassigned) [Compound 38] | 22.4 nM
38 | CCC1(NC(=O)O[C@H]2CO[C@@H](c3cc(NC(=O)c4ccnn4C)n[nH]3)C2)CCC1 [Compound 183] | 0.5 nM
39 | COC[C@@H]1CCN(C(=O)Nc2cc([C@H]3CC[C@@H](OC(=O)NC(C)C)C3)[nH]n2)C1 [Compound 120] | 116 nM
40 | CC(C)NC(=O)OC1COC(c2cc(NC(=O)Cc3ccc(C(F)(F)F)cc3)n[nH]2)C1 (stereo not drawn) [Compound 62] | 2.3 nM
41 | COC1CCC(C(=O)Nc2cc([C@H]3CC[C@@H](OC(=O)NC(C)C)C3)[nH]n2)C1 (single isomer, unassigned) [Compound 61] | 13.1 nM
42 | Cc1c(C2CC2C(=O)Nc2cc([C@@H]3CC[C@H](OC(=O)NC(C)C)C3)[nH]n2)cnn1C (single isomer, unassigned) [Compound 207] | 40.1 nM
43 | C#C[C@H]1C[C@@H]1C(=O)Nc1cc([C@H]2C[C@@H](OC(=O)NC(C)(C)C)CO2)[nH]n1 [Compound 166] | 0.9 nM
44 | Cc1cc(C(=O)Nc2cc([C@@H]3C[C@H](OC(=O)NC(C)C)CO3)[nH]n2)n(C)n1 [Compound 91] | 19.1 nM
45 | CC(C)NC(=O)O[C@@H]1CC[C@H](c2cc(NC(=O)C3CC4CCC3O4)n[nH]2)C1 (single isomer, unassigned) [Compound 152] | 85.5 nM
46 | COC1CCC(C(=O)Nc2cc([C@H]3CC[C@@H](OC(=O)NC(C)C)C3)[nH]n2)C1 (single isomer, unassigned) [Compound 60] | 37.4 nM
47 | CC(C)NC(=O)O[C@@H]1CC[C@H](c2cc(NC(=O)C3CN(S(C)(=O)=O)CC3C)n[nH]2)C1 (stereo partly drawn) [Compound 74] | 2.2 nM
48 | CC(C)NC(=O)O[C@@H]1CC[C@H](c2cc(NC(=O)[C@@H]3CCN(S(=O)(=O)C4CC4)C3)n[nH]2)C1 [Compound 70] | 1.2 nM
